Test results taken from PMC10090446, “Population pharmacokinetic analysis and dosing optimization of polymyxin B in critically ill patients” (Frontiers in Pharmacology, 2023).
Like-named read-outs stand apart in the source and are kept apart here. Positions of bridges follow the written chain, without caps; N, C: chain ends. Non-standard residues stand in square brackets, D forms with d. Residues, ends and D or L forms follow the SMILES beside them. *: point of attachment. X1 = CC[C@H](C)CCCCC(=O)*; Dab = NCC[C@H](N)C(=O)O

Legend:
[1] = Population pharmacokinetic (PPK) model, non-parametric adaptive grid (Pmetrics), critically ill patients; type: in vivo, human; details: for clearance: human
From the text: (§1) We gather data from critically ill patients (≥18 years old) who were given intravenous drip polymyxin B treatment with blood concentration monitoring at the hospital from November 2021 to September 2022. The attending physician decided to administer polymyxin B. At the same time, patients who received continuous renal replacement therapy (CRRT) (n = 10) or extracorporeal membrane oxygenation (ECMO) (n = 2) at the time of blood collection were excluded. Patients’ information, including gender, age, WT, serum creatinine (Scr), CCR, ALB, APACHE-II, infection diagnosis, and pathogenic bacteria, were obtained from the electronic system for medical records. CCR was generated by adopting the Cockcroft—Gault equation with WT and age ([Cucci et al., 2022]). The Ethical Committees of the Second Affiliated Hospital of the South China University of Technology authorized the study (K-2022-020-01).
(§2) Patients were treated with polymyxin B, and plasma samples were collected ≥ 48 h after the treatment. Each patient contributed clinical samples, of which 37.5% (n = 24) were sampled with troughs (within 1 h before administration), 35.9% (n = 23) were sampled with peaks (within 1 h after the end of the infusion), and 26.6% (n = 17) were sampled at 6-8 h after the infusion. The dosing regimens of polymyxin B were a loading dose of 100 mg–150 mg and a maintenance dose of 50 mg–75 mg q12h, and the infusion duration was about 1–2 h. In preparation for analysis, samples were centrifuged for 10 min at 3000 r min^-1 after collection, and the upper plasma after centrifugation was stored at −20°C.
(§3) According to previous studies, total polymyxin B1, polymyxin B2, and polymyxin B1-Ile concentrations in human blood plasma were quantified using LC-MS/MS ([Meng et al., 2016]; [Hee et al., 2017]). The standard used in our experiments was the USP standard with the batch number of R104F0. The chromatographic column was the Kinetex C18 (3 μm × 2.1 mm×100 mm. Phenomenex). A: B mobile phase was 0.1% formic acid to acetonitrile. With changes in the linear velocity ratio, gradient elution was as follows: 15% −15% B, 0–2.0 min; 15%–10% B, 2.01–4.0 min; 10%–30% B, 4.01–5.0 min; 15% B, 5.01 min; and 15%–15% B, 5.02–10 min. The flow rate was constrained to 0.8 mL min^-1, and the column temperature was set to 40°C. The parent/daughter ion mass ratios used in the mass spectrometry were m/z 602.6/241.2 (polymyxin B1 and B1-Ile) and m/z 595.6/202.1 (polymyxin B2). Plasma samples (100 μL) were collected from centrifuged blood samples, mixed with 500 μL precipitant (acetonitrile with 6.67% formic acid) and vortexed well for 1 min. The lower limit of quantification (LLOQ) of the bioanalytical method used for quantifying polymyxin B1, B2, and B1-Ile concentrations was 0.19, 0.02 and 0.02 mg L^-1, respectively. The linear relationships of polymyxin B1, B2, and B1-Ile concentrations in the range of 0.19–24.13 mg L^-1, 0.02–2.7 mg L^-1 and 0.02–2.38 mg L^-1 were considered good (R^2 = 0.99677, R^2 = 0.99656, R^2 = 0.99484) and the accuracy was within 95.3%–105.3%, 92.2%–104.8%, and 95.8%–105.4%. […] Finally, 200 μL of the supernatant from the centrifugation of the combination at 14,000 r min^-1 for 10 min was employed to measure the amounts of polymyxin B.
In order to analyze the total concentrations of polymyxin B, Pmetrics version 1.9.7 (Laboratory of Applied Pharmacokinetics and Bioinformatics, Los Angeles, CA) was used by R version 4.1.3 ([Neely et al., 2012]). PK parameters were evaluated by a one-compartment model and a two-compartment model. The multiplicative error model (SD ×gamma), which requires the observation concentration values to be weighted by the reciprocal of the error, was used to calculate the error structure model. Gamma is the process noise that results from incorrectly specified sampling time, dosage, etc. […]

[2] = Steady-state plasma concentrations of polymyxin B (total of B1, B2, B1-Ile) by LC-MS/MS; type: in vivo; details: human, iv, 50 mg, read-out: OUT (observed polymyxin B plasma concentration)
From the text: as §1, §2, §3

[3] = data splitting, 20% of the data
[4] = data splitting, 80% of the data
[5] = final model 6, bootstrap, median
[6] = final model 6, full data set, 22 critically ill patients, iv, mean
[7] = final model 6, full data set, median

## CC[C@H](C)CCCCC(=O)N[C@@H](CCN)C(=O)N[C@H](C(=O)N[C@@H](CCN)C(=O)N[C@H]1CCNC(=O)[C@H]([C@@H](C)O)NC(=O)[C@H](CCN)NC(=O)[C@H](CCN)NC(=O)[C@H](CC(C)C)NC(=O)[C@@H](Cc2ccccc2)NC(=O)[C@H](CCN)NC1=O)[C@@H](C)O [polymyxin B] (X1-[Dab]T[Dab][Dab][Dab][dF]L[Dab][Dab]T; lactam 4-C)
[1]; [3]
  Q, mean value: 2.56 L/h
  Vc, mean value: 13.58 L
  Vp, mean value: 64.60 L
[1]; [4]
  Q, mean value: 3.44 L/h
  Vc, mean value: 17.82 L
  Vp, mean value: 40.26 L
[1]; [5]
  CL, bootstrap median: 1.22 L/h
  Q, bootstrap median: 2.31 L/h
  Vc, bootstrap median: 17.15 L
  Vp, bootstrap median: 66.34 L
[1]; [6]
  Q, mean: 3.04 L/h
  Vc, mean: 16.64 ± 12.74 L
  Vp, mean: 66.20 L
[1]; [7]
  Q, median: 2.34 L/h
  Vc, median: 13.52 L
  Vp, median: 76.53 L
[1]; plasma, iv, data splitting, 20% of the data, read-out: CL, mean value (converted)
  clearance: 21.8 mL/min
[1]; plasma, iv, data splitting, 80% of the data, read-out: CL, mean value (converted)
  clearance: 22.5 mL/min
[1]; plasma, iv, final model 6, full data set, 22 critically ill patients, iv, median, read-out: CL, median (converted)
  clearance: 20.3 mL/min
[1]; final model 6 (two-compartment, covariates age and ALB), full data set, 22 critically ill patients, 64 samples, iv infusion, steady state, total plasma concentration, LC-MS/MS, NPAG, mean, read-out: CL, mean (converted)
  clearance: 20.7 mL/min
[2]; patient ID 2, TIME 47.67, DOSE 50 every 12 from 0 to 36, DUR 1, WT 56, CCR 34.05, ALB 30.1, APACHE 20, single sample
  level at 47.67 h: 3020 ng/mL
[2]; patient ID 6, TIME 50, DOSE 50 every 12 from 0 to 48, DUR 1, WT 60, CCR 81.34, ALB 36.6, APACHE 18, single sample
  level at 50 h: 4480 ng/mL
[2]; patient ID 7, TIME 300, DOSE 50 from 0, ADDL 25, II 12, DUR 1, WT 52, CCR 121.16, ALB 32.1, APACHE 21, single sample
  level at 300 h: 2640 ng/mL
[2]; patient ID 7, TIME 301, DOSE 50 from 0, ADDL 25, II 12, DUR 1, WT 52, CCR 121.16, ALB 32.1, APACHE 21, single sample
  level at 301 h: 7720 ng/mL
[2]; patient ID 7, TIME 306.5, DOSE 50 from 0, ADDL 25, II 12, DUR 1, WT 52, CCR 121.16, ALB 32.1, APACHE 21, single sample
  level at 306.5 h: 4180 ng/mL
[2]; patient ID 9, TIME 133.6, DOSE 50 from 0, ADDL 11, II 12, DUR 1, WT 55, CCR 34.79, ALB 30.8, APACHE 15, single sample
  level at 133.6 h: 3740 ng/mL
[2]; patient ID 9, TIME 139, DOSE 50 from 0, ADDL 11, II 12, DUR 1, WT 55, CCR 34.79, ALB 30.8, APACHE 15, single sample
  level at 139 h: 3180 ng/mL
[2]; patient ID 9, TIME 145, DOSE 50 from 0, ADDL 11, II 12, DUR 1, WT 55, CCR 34.79, ALB 30.8, APACHE 15, single sample
  level at 145 h: 2890 ng/mL
[2]; patient ID 15, TIME 195, DOSE 50 every 12 from 133 (DUR 1, ADDL 11), WT 50, CCR 35.85, ALB 29.5, APACHE 39, single measurement
  level at 195 h: 4600 ng/mL
[2]; patient ID 15, TIME 207, DOSE 50 every 12 from 133 (DUR 1, ADDL 11), WT 50, CCR 35.85, ALB 29.5, APACHE 39, single measurement
  level at 207 h: 2250 ng/mL
[2]; patient ID 15, TIME 266.25, DOSE 50 every 12 from 133 (DUR 1, ADDL 11), WT 50, CCR 35.85, ALB 29.5, APACHE 39, single measurement
  level at 266.25 h: 4870 ng/mL
[2]; patient ID 15, TIME 277, DOSE 50 every 12 from 133 (DUR 1, ADDL 11), WT 50, CCR 35.85, ALB 29.5, APACHE 39, single measurement
  level at 277 h: 2420 ng/mL
[2]; patient ID 16, TIME 169.25, DOSE 50 every 12 from 0 (DUR 2, ADDL 14), WT 65, CCR 75.18, ALB 32, APACHE 31, single measurement
  level at 169.25 h: 6980 ng/mL
[2]; patient ID 16, TIME 174, DOSE 50 every 12 from 0 (DUR 2, ADDL 14), WT 65, CCR 75.18, ALB 32, APACHE 31, single measurement
  level at 174 h: 2970 ng/mL
[2]; patient ID 16, TIME 179, DOSE 50 every 12 from 0 (DUR 2, ADDL 14), WT 65, CCR 75.18, ALB 32, APACHE 31, single measurement
  level at 179 h: 2460 ng/mL
[2]; patient ID 17, TIME 120, DOSE 50 every 12 from 0 (DUR 1, ADDL 10), WT 75, CCR 55.08, ALB 38.8, APACHE 22, single measurement
  level at 120 h: 4530 ng/mL
[2]; patient ID 17, TIME 121.48, DOSE 50 every 12 from 0 (DUR 1, ADDL 10), WT 75, CCR 55.08, ALB 38.8, APACHE 22, single measurement
  level at 121.48 h: 2350 ng/mL
[2]; patient ID 18, TIME 62.5, DOSE 50 at 0, 12, 24, 36, 48, 60, DUR 2, WT 80, CCR 169.94, ALB 41.5, APACHE 29, single measurement
  level at 62.5 h: 4860 ng/mL
